“Also recorded” adds a separate entry of the source.
Experiments:
[1] = system: PBMCs; experiment: CXCL5 protein ELISA in culture supernatants of PBMCs treated with NECA +/- CPI-444; assay type: cell-based, human
Description: Expression of CXCL5 was determined by ELISA 2 days after activation.
FIGS. 2B and 2C show the response of PBMCs from two different donors to NECA+/−CPI-444 treatment. DMSO was used as vehicle control. […] This control helps establish that the induction of CXCL5 is specific to signaling through adenosine receptors.
NECA activation of CXCL5 protein expression was evaluated. PBMCs were harvested from two different human donors. […] CPI-444 (Corvus Pharmaceuticals) is an antagonist of the adenosine A2A receptor. CXCL5 protein in the culture supernatants was evaluated by ELISA two days after activation. CXCL5 expression is activated by NECA. […] This establishes that the induction of CXCL5 is specific to signaling through adenosine receptors.

[2] = system: A2AR; experiment: In vitro A2AR stimulation gene signature +/- CPI-444 (transcript and protein); assay type: cell-based, human; conditions: at the transcript and protein level
Description: RNA purified from normal, healthy human peripheral blood mononuclear cells (PBMCs) treated with 5′-N-ethylcarboxamidoadenosine (NECA) and activated with anti-CD3/CD28 antibody were analyzed by NanoString hybridization-based quantification (NanoString Technologies, Inc.). […] Each dot represents the expression level of a specific gene. Dot shade represents the concentration of NECA used and/or different PBMC donors. […] Increases in monocyte/macrophage inflammatory mediators such as IL-1b and CCL2, 3, 7, 8, 20 were also observed, as were increases in SERPINB2, S100A8, PTGS2, THBS1. Expression of CXCL10 and GZMB were decreased, consistent with a suppressed IFNg response. […] A2AR agonists induce a specific gene signature (increase in a certain subset of genes and/or decrease in a second subset of genes) dominated by immunosuppressive mediators of MDSC and monocyte/macrophage biology. Inhibition of these genes by CPI-444 are observed. These gene signatures may be used as biomarkers for patient selection.

[3] = system: advanced cancers; experiment: Ongoing phase 1/1b trial in patients with advanced cancers; assay type: in vivo, human; conditions: as a monotherapy and in combination with atezolizumab
Text: “Adenosine receptor antagonist” refers to a molecule that inhibits activity of adenosine receptors (e.g. A2A or A2B receptors), typically through direct action. Adenosine receptors antagonists can be small or large molecule antagonists. In embodiments, CPI-444 is an example A2A receptor antagonist. […] CPI-444 is described, for example, in PCT Patent Publication No. WO 2017/112917; each of which is incorporated herein by reference in its entirety.

[4] = system: human peripheral blood mononuclear cells (PBMCs); experiment: NanoString quantification of mRNA in NECA-treated, anti-CD3/CD28-activated PBMCs; assay type: cell-based; conditions: 0.1 μM, 1 μM, and/or 10 μM NECA vs vehicle-treated control
Description: (§1) RNA purified from normal, healthy human peripheral blood mononuclear cells (PBMCs) treated with 5′-N-ethylcarboxamidoadenosine (NECA) and activated with anti-CD3/CD28 antibody were analyzed by NanoString hybridization-based quantification (NanoString Technologies, Inc.). […] Each dot represents the expression level of a specific gene. Dot shade represents the concentration of NECA used and/or different PBMC donors.

[5] = system: human peripheral blood mononuclear cells (PBMCs); experiment: RNA sequencing (RNA-Seq) of NECA-treated PBMCs; assay type: cell-based
Description: as §1, with “donors. […] Data were confirmed by RNA sequencing (RNA-Seq).” for “donors.”

Cc1ccc(-c2nc(N)nc3c2nnn3Cc2cccc(CO[C@H]3CCOC3)n2)o1 [CPI-444, (S)-7-(5-methylfuran-2-yl)-3-((6-(((tetrahydrofuran-3-yl)oxy)methyl)pyridin-2-yl)methyl)-3H-[1,2,3]triazolo[4,5-d]pyrimidin-5-amine]
Blocking of NECA-induced CXCL5 protein expression ([1]; PBMCs treated with NECA, followed by CPI-444, then anti-CD3/CD28, ELISA two days after activation): can be blocked
Inhibition of A2AR-stimulation-induced gene expression changes [2]: inhibited these changes
anti-tumor activity [3]: demonstrated anti-tumor activity

CCNC(=O)[C@H]1O[C@@H](n2cnc3c(N)ncnc32)[C@H](O)[C@@H]1O [NECA, 5′-N-ethylcarboxamidoadenosine]
logFC CD14 [4]: 0.4485
logFC CD86 [4]: 0.3148
logFC CLEC5A [4]: 0.3833
logFC CXCL1 [4]: 0.6909
logFC CXCL2 [4]: 1.093
logFC CXCL3 [4]: 1.101
logFC CXCL5 [4]: 1.338
logFC CXCL6 [4]: 0.6535
logFC IL1A [4]: 0.6367
logFC IL1B [4]: 0.6345
logFC IL6 [4]: 0.7014
logFC IL8 [4]: 0.6411
logFC IL23A [4]: 0.4628
logFC IL24 [4]: 0.5768
logFC PLAUR [4]: 0.5031
logFC PPBP [4]: 0.683
logFC PTGS2 [4]: 0.6892
logFC SLC11A1 [4]: 0.7022
logFC TBX21 [4]: −0.1238
logFC THBS1 [4]: 0.8703
logFC CCL24 ([5]; Control (DMSO) vs 0.1 μm NECA): −1.068
logFC CD93 ([5]; Control (DMSO) vs 0.1 μm NECA): 0.9975
logFC CSF3 ([5]; Control (DMSO) vs 0.1 μm NECA): 1.603
logFC CXCL2 ([5]; Control (DMSO) vs 0.1 μm NECA): 1.452
logFC CXCL3 ([5]; Control (DMSO) vs 0.1 μm NECA): 1.694
logFC CXCL5 ([5]; Control (DMSO) vs 0.1 μm NECA): 2.388
logFC EHF ([5]; Control (DMSO) vs 0.1 μm NECA): −0.2753
logFC EML6 ([5]; Control (DMSO) vs 0.1 μm NECA): 0.2117
logFC EPB41L3 ([5]; Control (DMSO) vs 0.1 μm NECA): 1.183
logFC FUT7 ([5]; Control (DMSO) vs 0.1 μm NECA): −0.2135
logFC HAS1 ([5]; Control (DMSO) vs 0.1 μm NECA): 2.059
logFC IL23A ([5]; Control (DMSO) vs 0.1 μm NECA): 0.7971
logFC INHBA ([5]; Control (DMSO) vs 0.1 μm NECA): 0.5196
logFC KLC4 ([5]; Control (DMSO) vs 0.1 μm NECA): 0.216
logFC LAYN ([5]; Control (DMSO) vs 0.1 μm NECA): 0.4228
logFC MRPL11 ([5]; Control (DMSO) vs 0.1 μm NECA): −0.19
logFC MS4A7 ([5]; Control (DMSO) vs 0.1 μm NECA): 0.9319
logFC NPR1 ([5]; Control (DMSO) vs 0.1 μm NECA): 0.7892
logFC OST4 ([5]; Control (DMSO) vs 0.1 μm NECA): 0.2352
logFC PADI2 ([5]; Control (DMSO) vs 0.1 μm NECA): 0.4802
logFC PTGS2 ([5]; Control (DMSO) vs 0.1 μm NECA): 1.184
logFC SLC7A7 ([5]; Control (DMSO) vs 0.1 μm NECA): 0.5935
logFC SPON1 ([5]; Control (DMSO) vs 0.1 μm NECA): 0.3611
logFC ST6GALNAC2 ([5]; Control (DMSO) vs 0.1 μm NECA): 0.5342
logFC SYTL3 ([5]; Control (DMSO) vs 0.1 μm NECA): 0.2894
logFC WDR83OS ([5]; Control (DMSO) vs 0.1 μm NECA): −0.2872
logFC ZBTB18 ([5]; Control (DMSO) vs 0.1 μm NECA): 0.2431
logFC CCDC60 ([5]; Control (DMSO) vs 1 μm NECA): 0.07658
logFC CD93 ([5]; Control (DMSO) vs 1 μm NECA): 1.454
logFC CSF3 ([5]; Control (DMSO) vs 1 μm NECA): 2.802
logFC CXCL2 ([5]; Control (DMSO) vs 1 μm NECA): 2.361
logFC CXCL3 ([5]; Control (DMSO) vs 1 μm NECA): 2.573
logFC CXCL5 ([5]; Control (DMSO) vs 1 μm NECA): 3.451
logFC EHF ([5]; Control (DMSO) vs 1 μm NECA): −0.2522
logFC EMR3 ([5]; Control (DMSO) vs 1 μm NECA): 1.364
logFC EPB41L3 ([5]; Control (DMSO) vs 1 μm NECA): 1.854
logFC EREG ([5]; Control (DMSO) vs 1 μm NECA): 1.89
logFC FUT7 ([5]; Control (DMSO) vs 1 μm NECA): −0.4158
logFC GPR157 ([5]; Control (DMSO) vs 1 μm NECA): 0.9283
logFC HAS1 ([5]; Control (DMSO) vs 1 μm NECA): 3.238
logFC IL23A ([5]; Control (DMSO) vs 1 μm NECA): 1.363
logFC IL24 ([5]; Control (DMSO) vs 1 μm NECA): 2.876
logFC INHBA ([5]; Control (DMSO) vs 1 μm NECA): 0.9638
logFC LAYN ([5]; Control (DMSO) vs 1 μm NECA): 0.5277
logFC MS4A7 ([5]; Control (DMSO) vs 1 μm NECA): 1.535
logFC OST4 ([5]; Control (DMSO) vs 1 μm NECA): −0.1747
logFC PADI2 ([5]; Control (DMSO) vs 1 μm NECA): 0.7173
logFC PID1 ([5]; Control (DMSO) vs 1 μm NECA): 1.729
logFC PTGS2 ([5]; Control (DMSO) vs 1 μm NECA): 2.23
logFC SLC7A7 ([5]; Control (DMSO) vs 1 μm NECA): 0.9514
logFC SPON1 ([5]; Control (DMSO) vs 1 μm NECA): 0.5667
logFC ST6GALNAC2 ([5]; Control (DMSO) vs 1 μm NECA): 0.8306
logFC TGIF1 ([5]; Control (DMSO) vs 1 μm NECA): 0.4769
logFC ZBTB18 ([5]; Control (DMSO) vs 1 μm NECA): 0.3385
logFC CCNE1 ([5]; Control (DMSO) vs 10 μm NECA): −0.4518
logFC CD93 ([5]; Control (DMSO) vs 10 μm NECA): 1.895
logFC CD300E ([5]; Control (DMSO) vs 10 μm NECA): 1.71
logFC CSF3 ([5]; Control (DMSO) vs 10 μm NECA): 3.508
logFC CXCL2 ([5]; Control (DMSO) vs 10 μm NECA): 3.011
logFC CXCL3 ([5]; Control (DMSO) vs 10 μm NECA): 3.106
logFC CXCL5 ([5]; Control (DMSO) vs 10 μm NECA): 3.354
logFC DENA5 ([5]; Control (DMSO) vs 10 μm NECA): 0.6559
logFC ECEL1 ([5]; Control (DMSO) vs 10 μm NECA): 0.6918
logFC EPB41L3 ([5]; Control (DMSO) vs 10 μm NECA): 2
logFC GALM ([5]; Control (DMSO) vs 10 μm NECA): −0.3189
logFC GBP6 ([5]; Control (DMSO) vs 10 μm NECA): −0.8039
logFC GPR157 ([5]; Control (DMSO) vs 10 μm NECA): 1.139
logFC HAS1 ([5]; Control (DMSO) vs 10 μm NECA): 3.807
logFC IL5 ([5]; Control (DMSO) vs 10 μm NECA): −0.6885
logFC IL23A ([5]; Control (DMSO) vs 10 μm NECA): 1.332
logFC INHBA ([5]; Control (DMSO) vs 10 μm NECA): 1.192
logFC LAP3 ([5]; Control (DMSO) vs 10 μm NECA): −0.4286
logFC LOC100505585 ([5]; Control (DMSO) vs 10 μm NECA): 0.6639
logFC NID1 ([5]; Control (DMSO) vs 10 μm NECA): 1.087
logFC PADI2 ([5]; Control (DMSO) vs 10 μm NECA): 0.9386
logFC PID1 ([5]; Control (DMSO) vs 10 μm NECA): 2.124
logFC PTGS2 ([5]; Control (DMSO) vs 10 μm NECA): 2.349
logFC RHCG ([5]; Control (DMSO) vs 10 μm NECA): 0.5767
logFC SLC7A7 ([5]; Control (DMSO) vs 10 μm NECA): 0.9134
logFC SPON1 ([5]; Control (DMSO) vs 10 μm NECA): 0.568
logFC ST6GALNAC2 ([5]; Control (DMSO) vs 10 μm NECA): 0.876
CXCL5 protein in the culture supernatants (ELISA) ([1]; PBMCs from two human donors, anti-CD3/CD28 activated, two days after activation, vs DMSO): activated; also recorded: dose-dependent increase in CXCL5

— patent US12116635B2, “Methods for detecting and treating cancers having adenosine pathway activation” (Corvus Pharmaceuticals, Inc., priority 2018, dated 2024)
